Data from patent publication US12115152B2, “Pan-RAF kinase inhibitor and use thereof” (HEFEI INSTITUTES OF PHYSICAL SCIENCE, CHINESE ACADEMY OF …, priority 2019, dated 2024).

Columns and labels:
Type in all cases: cell-based
[1] = Effect on proliferation of cells, Cell Titer-Glo, 72 hours; settings: Mus musculus, BaF3 cells
Method: The compounds of the present invention were tested for their effect on growth of cancer cells (Table 2), to further evaluate the compounds herein for their inhibitory effect on proliferation of cancer cells and their selectivity in inhibiting proliferation of cancer cells. […]
In the example, solutions of the test compound in DMSO at different concentrations (0.000508 μM, 0.00152 μM, 0.00457 μM, 0.0137 μM, 0.0411 μM, 0.123 μM, 0.370 μM, 1.11 μM, 3.33 μM, 10 μM) was added to the above cells respectively. The cells were incubated for 72 hours. The number of viable cells was detected with a Cell Titer-Glo (Promega, USA) Cell Viability Assay Kit by quantifying the ATP in viable cells. The values of GI50 (unit) of the compounds of the present invention against each of the test cells were determined.

[2] = tested on: melanoma cell A375 (expressing BRAF-V600E mutant kinase); test: Effect on proliferation of cancer cells, Cell Titer-Glo, 72 hours; settings: Homo sapiens, A-375
Method: (§1) The compounds of the present invention were tested for their effect on growth of cancer cells (Table 2), to further evaluate the compounds herein for their inhibitory effect on proliferation of cancer cells and their selectivity in inhibiting proliferation of cancer cells.
(§2) The cells were incubated for 72 hours. The number of viable cells was detected with a Cell Titer-Glo (Promega, USA) Cell Viability Assay Kit by quantifying the ATP in viable cells. The values of GI50 (unit) of the compounds of the present invention against each of the test cells were determined.

[3] = tested on: colorectal cancer cell COLO205 (expressing BRAF-V600E mutant kinase); test: as above; settings: Homo sapiens, COLO 205
Method: as §1, §2

SMILES | GI50 [2] [nM] | GI50 [3] [nM] | GI50 [1] [nM]
Cc1cn(-c2cc(C(=O)Nc3ccc(C)c(-n4cc(-c5cnc6[nH]ccc6c5)cn4)c3)cc(C(F)(F)F)c2)cn1 [Example 167, N-(3-(4-(1H-pyrrolo[2,3-b]pyrid-5-yl)-1H-pyrazol-1-yl)-4-methylphenyl)-3-(4-methyl-1H-imidazol-1-yl)-5-(trifluoromethyl)benzamide] | 330 | 670 | 3900
Cc1ccc(NC(=O)c2cccc(C(C)C#N)c2)cc1-n1cc(-c2cnc3[nH]ccc3c2)cn1 (centres unmarked) [Example 179, N-(3-(4-(1H-pyrrolo[2,3-b]pyrid-5-yl)-1H-pyrazol-1-yl)-4-methylphenyl)-3-(1-cyanoethyl)benzamide] | 250 | 140 | 3600
Cc1ccc(NC(=O)c2ccc(CN3CCN(C)CC3)c(C(F)(F)F)c2)cc1-n1cc(-c2cnc3[nH]ccc3c2)cn1 [Example 168, N-(3-(4-(1H-pyrrolo[2,3-b]pyrid-5-yl)-1H-pyrazol-1-yl)-4-methylphenyl)-4-((4-methylpiperazin-1-yl)methyl)-3-(trifluoromethyl)benzamide] | 46 | 28 | 3300
Cc1ccc(NC(=O)c2ccc(CN3CCN(C)CC3)c(C(F)(F)F)c2)cc1-n1cnc(-c2cnc3[nH]ccc3c2)c1 [Example 174, N-(3-(4-(1H-pyrrolo[2,3-b]pyrid-5-yl)-1H-imidazol-1-yl)-4-methylphenyl)-4-((4-methylpiperazin-1-yl)methyl)-3-(trifluoromethyl)benzamide] | 160 | 110 | 960
Cc1ccc(NC(=O)c2ccc3cccnc3c2)cc1-n1cc(-c2cnc3[nH]ccc3c2)cn1 [Example 182, N-(3-(4-(1H-pyrrolo[2,3-b]pyrid-5-yl)-1H-pyrazol-1-yl)-4-methylphenyl)quinoline-7-carboxamide] | 500 | 400 | 2000

Now from value to compound, other results behind:

GI50 [2] [nM] | GI50 [3] [nM] | SMILES | GI50 [1] [nM]
36 | 48 | Cc1ccc(NC(=O)c2cccc(C(F)(F)F)c2)cc1-n1cc(-c2cncc(-c3cccnc3)c2)cn1 [Example 2, N-(3-(4-([3,3′-bipyridyl]-5-yl)-1H-pyrazol-1-yl)-4-methylphenyl)-3-(trifluoromethyl)benzamide] | 1700
300 | 150 | Cc1ccc(NC(=O)c2cccc(-c3ccsc3)c2)cc1-n1cc(-c2cnc3[nH]ccc3c2)cn1 [Example 183, N-(3-(4-(1H-pyrrolo[2,3-b]pyrid-5-yl)-1H-pyrazol-1-yl)-4-methylphenyl)-3-(thien-3-yl)benzamide] | 3400
81 | 62 | Cc1ccc(NC(=O)c2cccc(C(F)(F)F)c2)cc1-n1cc(-c2cncc(-c3ccncc3)c2)cn1 [Example 13, N-(3-(4-([3,4′-bipyridyl]-5-yl)-1H-pyrazol-1-yl)-4-methylphenyl)-3-(trifluoromethyl)benzamide] | 1300
140 | 300 | Cc1ccc(NC(=O)c2cc(C(C)(C)C)on2)cc1-n1cnc(-c2cnc3[nH]ccc3c2)c1 [Example 178, N-(3-(4-(1H-pyrrolo[2,3-b]pyrid-5-yl)-1H-imidazol-1-yl)-4-methylphenyl)-5-(tert-butyl)isoxazole-3-carboxamide] | 3700
110 | 360 | Cc1ccc(NC(=O)c2cccc(C(C)(C)C#N)c2)cc1-n1cc(-c2cnc3[nH]ccc3c2)cn1 [Example 171, N-(3-(4-(1H-pyrrolo[2,3-b]pyrid-5-yl)-1H-pyrazol-1-yl)-4-methylphenyl)-3-(2-cyanoprop-2-yl)benzamide] | 2600
100 | 98 | Cc1ccc(NC(=O)c2cccc(C(F)(F)F)c2)cc1-n1cc(-c2cncc(-c3ccc(N4CCN(C)CC4)cc3)c2)cn1 [Example 31, N-(4-methyl-3-(4-(5-(4-(4-methylpiperazin-1-yl)phenyl)pyrid-3-yl)-1H-pyrazol-1-yl)phenyl)-3-(trifluoromethyl)benzamide] | –
